Here are results for one molecule from patent publication US20100179091A1, “Treatment of Conditions Related to Shock” (THE REGENTS OF THE UNIVERSITY OF CALIFORNIA, priority 2007, published 2010).

The test system of this experiment is shock induced in lab rodents. As to the kind of experiment: Survival of lab rodents after induced shock, treated with digestive enzyme inhibitor. In kind it is in vivo, rodent. The text has this: The present invention is based on the latest research using rodent models of human hemorrhagic shock. Here it has been discovered that the sudden lowering of blood pressure that occurs in people suffering from […] can provoke the body's digestive enzymes to break down the body's own intestinal and other tissues as if it were food. Such enzymes' abnormal actions may be defined as “auto-digestion.” Auto-digestion is dangerous because not only does it injure healthy tissue but also contributes to multi-organ failure, which can be fatal.
The healthy cells of the animals' intestinal tissue react to auto-digestion by releasing a slew of substances that can be toxic to the heart and other body organs. These substances, termed cytotoxic mediators, can reach these body organs via the blood stream. In recent studies, shock was induced in 19 lab rodents, all of which were then treated with therapies that mirror the emergency room care given to many human patients who suffer shock, which typically occurs when blood flow to the heart, lungs and other body organs is slowed as a result of trauma, dehydration, heart attack, stroke or radiation.
A total of 10 of the 19 lab rodents in shock were also treated with the experimental digestive enzyme inhibitor called ANGD. […] However, only one of the nine “untreated” animals in shock survived. […]

For the molecule `CS(=O)(=O)O.CS(=O)(=O)O.N=C(N)Nc1ccc(C(=O)Oc2ccc3cc(C(=N)N)ccc3c2)cc1` [ANGD], the animals surviving result (10 of 19 lab rodents in shock treated with ANGD plus basic shock care, one of nine untreated survived) is given as “Eight of the ten survived”. Further, under “lab animals in which shock had been induced”, the survival rate entry is “dramatically improved the survival rate”.
